Read-outs that look alike come from different tables or passages of the source.
Target: T1, GPx4 embedded in a mmRM (membrane-bound GPx4) (Homo sapiens, UniProt P36969, U73G)
T1 construct: Truncated U46G-GPx4 with a TEV cleavable poly-histidine tag was inserted into vector; poly-histidine tag with TEV cleavage site; host or cells: BL21 (DE3) E. coli
T1 sequence (P36969 1-170 isoform P36969-2 U46G): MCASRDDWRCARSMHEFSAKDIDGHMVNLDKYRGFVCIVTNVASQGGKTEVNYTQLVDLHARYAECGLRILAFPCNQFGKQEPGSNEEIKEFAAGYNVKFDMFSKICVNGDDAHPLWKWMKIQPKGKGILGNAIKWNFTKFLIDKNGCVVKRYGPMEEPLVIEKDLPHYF
Experiment: NMR (15N-HSQC) titration of fragments against GPx4 embedded in DLPC/DPC mmRM, apparent Kd
Type: binding
Conditions: ± standard error of global Kd fit
Source text: To assess whether the fragment hits are bound specifically to GPx4 and to calculate affinity, we performed NMR-based titrations. Chemical shift changes that approach saturation in a structurally localized manner target indicate specific binding.[24] This allows true positive hits to be separated from false positives and weak or nonspecific binders. Additionally, NMR-based titrations allow for the extraction of a binding affinity (Kd). To calculate apparent Kd values, CSP cutoffs were used to isolate the resonances with most shifting using 1 standard deviation above the average CSP. All 14 fragments identified from the deconvolutions were titrated up to 400 μM or 1 mM if needed. Of the 14, 9 had apparent Kds less than 1 mM and were identified as hits. Observed here is a 0.47% hit rate with best affinities in the μM range for the membrane-bound form of GPx4 and is consistent with ligandable and potentially druggable targets.[14],[57] […] The remaining five fragments, 10–14, were ruled out as weaker (>∼1 mM) or nonspecific binders. Weak or nonspecific binding could indicate that fragments partitioning to the mmRM surface and perturb the protein spectrum through a simple change in the chemical environment at the interface, among other possible nonspecific effects. […] We note that the weaker and nonspecific fragments were only eliminated due to interaction modes that are too weak or unproductive for advancement toward inhibitors; yet, binding was nevertheless detected. […] We note here that apparent Kd values reported in this study account for a total amount of fragment and protein within the mmRM sample and are not corrected for any potential concentrating effect due to localization of fragment to the mmRM surface or water phase.
NMR samples were prepared with ^15N-isotopically labeled protein with 10% v/v of d-pentane as the lock solvent (Sigma-Aldrich, St. Louis, MO). All NMR spectra were collected at 25 °C on a 700 MHz Bruker Avance III instrument. All NMR spectra were processed using NMRPipe[66] and analyzed using NMRFAM-Sparky.[67] Chemical shifts for GPx4 (BMRB 50955) were assigned from those previously published.[52] Chemical shift perturbations from ^15N-HSQC spectra were calculated using the following formula [drawing 1] where Δ^1H and Δ^15N are the changes in ^1H and ^15N chemical shifts, respectively.
The 14 fragments isolated from deconvolutions were purchased from Life Chemicals (fragments 1, 4, 6, and 11, and 12–14), Combi-Blocks (2, 3, 5, 9, and 10), or ChemBridge Hit2Lead (7 and 8). All fragment 1 and 5 analogues were also purchased from ChemBridge Hit2Lead. Fragments and analogues purchased from Life Chemicals and Hit2Lead are 90+% pure, while the fragments purchased from Combi-Blocks ranged from 95 to 97% pure. The day prior to the titration, a double-volume sample of encapsulated GPx4 was made before being split up into two separate vials. Half of the sample was added to the vial containing predried fragment corresponding to 400 μM or 1 mM. […] If they were, then the two samples were mixed to produce varying concentrations and to measure a titration curve. The top-shifting resonances were determined by calculating the average CSP at 400 μM or 1 mM and 1 and 2 standard deviations (σ) above that average. The CSP for the resonance at each fragment concentration was extracted and fit to a curve using an affinity equation that accounts for ligand depletion [drawing 2]
Any resonance producing a curve with an R^2 below 0.85 was removed, and the remaining resonances were then used to fit a global apparent Kd curve for the fragment hit. Standard error for Kd from the global fit of all of the selected residues is reported.

[1] = Table 2, analogues of fragment 5, GPx4 in mmRM, read-out: Apparent Kd
[2] = Table 1, GPx4 in DLPC/DPC mmRM, NMR titration up to 400 μM or 1 mM, read-out: Kd (apparent)

Row | Structure (SMILES) | Kd [1] [µM] | Kd [2] [µM]
1 | N#Cc1ccc(CC(=O)O)cc1 [Fragment 2] | – | 110 ± 65
2 | NCCS(=O)(=O)c1ccccc1 [Fragment 3] | – | 140 ± 50
3 | COCC(=O)N1CCOc2ccccc2C1 [Fragment 4] | – | 140 ± 85
4 | NCc1nc(-c2ncccn2)no1 [Fragment 7] | – | 310 ± 100
5 | CC(=O)c1c(C)nn(CC(=O)O)c1C [Fragment 8] | – | 370 ± 165
6 | CCOC(=O)c1ccc(Cl)nn1 [Fragment 9] | – | 840 ± 300

Other lines, results leading:

Row | Kd [1] [µM] | Kd [2] [µM] | Structure (SMILES)
7 | > 400 | – | O=c1oc2c(-c3ccccc3)cc(O)cc2s1 [Analog 5.1]
8 | > 400 | – | Cc1cccc(-c2cc(O)cc3sc(=O)oc23)c1 [Analog 5.2]
9 | 85 ± 50 | – | O=c1oc2c(-c3ccccc3Cl)cc(O)cc2s1 [Analog 5.3]
10 | 40 ± 20 | – | O=c1oc2c(-c3ccc(Cl)cc3)cc(O)cc2s1 [Analog 5.4]
11 | 25 ± 10 | – | O=c1oc2c(-c3cccc(Cl)c3)cc(O)cc2s1 [Analog 5.6]
12 | 15 ± 10 | – | Cc1ccc(-c2cc(O)cc3sc(=O)oc23)cc1Cl [Analog 5.7]
